In assay [1] the target is T1, MAT2A homodimer (Homo sapiens, UniProt P31153).
T1 construct: inferred from Ni sepharose purification and imidazole elution; made in house; host or cells: Sf9 insect cells, recombinant baculovirus (Bac to Bac, pFASTBAC1 vector)
The assay can be described thus: Biochemical assay: inhibition of recombinant MAT2A homodimer (phosphate release, PiColorLock Gold). The note with it: MAT2A IC50 score; read-out: Enzyme Inhibition. In short, it runs like this: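 Baculovirus/Sf9-expressed, Ni-purified MAT2A at 4 μg/mL in pH 8.0 Tris/KCl/MgCl2/EDTA/BSA buffer, preincubated with compound 60 min at 25 °C. Started with ATP and L-methionine substrate mix (500 μM and 40 μM, stock in mix), 60 min at 25 °C; released phosphate by PiColorLock Gold against a phosphate standard curve.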

Assay [2] relates to HCT116 MTAP-/-. Briefly: Inhibition of cellular proliferation, 4 days, Cell Titer Glo, HCT116 MTAP-/-. It counts as cell-based. The note with it: Homo sapiens, HCT-116, 96 h, IC50 score, read-out: 4 Day Relative Growth Inhibition (MTAP −/−). In short, it runs like this:
(§1)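 Isogenic human colon carcinoma lines differing only in MTAP status, plated 24 h before dosing, then exposed for 4 days at 37 °C/5% CO2 to a 10-point 3-fold dilution series (0.2% DMSO final). Read-out is Cell Titer Glo ATP luminescence, blank-subtracted and normalised to in-plate DMSO control, plotted as % proliferation change versus log molar concentration.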
In general terms: In ATP-based viability assays light output follows the ATP content of the culture.

In assay [3] the test system is SAM in HCT116 human colon carcinoma cell line with deleted MTAP gene. The assay can be described thus: Cellular assay of target engagement (SAM): SAM level by LC-MS/MS after 72 hrs. It is filed as cell-based. The conditions noted are these: HCT-116, IC50 score, read-out: Cell 72 h SAM Inhibition (MTAP −/−). The method, boiled down: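 MTAP-deleted HCT116 cells were seeded, then exposed 24 h later to a 10-point 3-fold compound dilution series for 72 h at 37 °C/5% CO2. They were lysed in cold 80% methanol/acetic acid containing d3-SAM internal standard. SAM was quantified by LC-MS/MS (MRM, m/z 399.2→250.1).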

Assay [4] relates to HCT116 MTAP +/+. The assay can be described thus: Inhibition of cellular proliferation, 4 days, Cell Titer Glo, HCT116 MTAP+/+. It is filed as cell-based. The note with it: Homo sapiens, HCT-116, 96 h, IC50 score, read-out: 4 Day Relative Growth Inhibition (MTAP +/+). In short, it runs like this:
as §1

Structures are written as SMILES.

T1 sequence (P31153 whole entry): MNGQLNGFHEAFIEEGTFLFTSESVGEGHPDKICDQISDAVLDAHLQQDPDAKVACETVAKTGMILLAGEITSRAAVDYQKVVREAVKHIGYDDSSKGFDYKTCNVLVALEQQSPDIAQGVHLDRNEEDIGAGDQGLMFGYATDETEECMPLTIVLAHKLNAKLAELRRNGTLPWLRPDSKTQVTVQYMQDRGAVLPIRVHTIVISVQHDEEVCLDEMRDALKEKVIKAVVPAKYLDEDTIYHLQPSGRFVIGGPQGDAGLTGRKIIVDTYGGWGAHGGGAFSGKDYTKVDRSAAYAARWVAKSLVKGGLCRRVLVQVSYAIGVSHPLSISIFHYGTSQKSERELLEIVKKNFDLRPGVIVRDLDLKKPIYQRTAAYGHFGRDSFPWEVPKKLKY

Regarding `COc1ccc(-n2c(=O)c(-c3ccc(=O)n(C)c3)cc3cnc(NCC(F)(F)F)nc32)cc1` [Example 180], the IC50 in assay [1] was less than 100 nM; in assay [2] it was 100 to 1000 nM; in assay [3], 100 to 1000 nM; in assay [4] it was not below 1000 nM.

Turning to `COc1ccc(-n2c(=O)c(-c3cn[nH]c3)cc3cnc(NCC(F)(F)F)nc32)cc1` [Example 183], the IC50 in assay [1] is less than 100 nM; in assay [2] it was not below 1000 nM; in assay [3] it was 100 to 1000 nM; in assay [4], not below 1000 nM.

For the compound `COc1ccc(-n2c(=O)c(-c3ccc4nccnc4c3)cc3cnc(NCC(F)(F)F)nc32)cc1` [Example 185], the IC50 in assay [1] is less than 100 nM; in assay [2], 100 to 1000 nM; in assay [3] it was less than 100 nM; in assay [4] it was not below 1000 nM.

Take `COc1ccc(-n2c(=O)c(-c3ccc4nnccc4c3)cc3cnc(NCC(F)(F)F)nc32)cc1` [Example 186]: the IC50 in assay [1] is less than 100 nM; in assay [2], 100 to 1000 nM; in assay [3], less than 100 nM; in assay [4], not below 1000 nM.

Take `COc1ccc(-n2c(=O)c(-c3cnn(C)c3)cc3cnc(NCC(F)(F)F)nc32)cc1` [Example 187]: the IC50 was less than 100 nM in assay [1], 100 to 1000 nM in assay [2], 100 to 1000 nM in assay [3] and not below 1000 nM in assay [4].

For the compound `COc1ccc(-n2c(=O)c(-c3ccc4ncsc4c3)cc3cnc(NCC(F)(F)F)nc32)cc1` [Example 188], the IC50 in assay [1] was less than 100 nM; in assay [2], 100 to 1000 nM; in assay [3], less than 100 nM; in assay [4], not below 1000 nM.

Turning to `COc1ccc(-n2c(=O)c(-c3ccc4ncoc4c3)cc3cnc(NCC(F)(F)F)nc32)cc1` [Example 189], the IC50 is less than 100 nM in assay [1], 100 to 1000 nM in assay [2], 100 to 1000 nM in assay [3] and not below 1000 nM in assay [4].

`COc1ccc(-n2c(=O)c(-c3ccc4nncn4c3)cc3ccc(OCC(F)F)nc32)cc1` [Example 194, 3-([1,2,4]triazolo[4,3-a]pyridin-6-yl)-7-(2,2-difluoroethoxy)-1-(4-methoxyphenyl)-1,8-naphthyridin-2(1H)-one]: the IC50 is less than 100 nM in assay [1], less than 100 nM in assay [2], less than 100 nM in assay [3] and 100 to 1000 nM in assay [4].

In the case of `CCOc1ccc2cc(-c3ccc4ncn(C)c4c3)c(=O)n(-c3ccc(Cl)cc3)c2n1` [Example 195], the IC50 in assay [1] was less than 100 nM; in assay [2], less than 100 nM; in assay [3] it was less than 100 nM; in assay [4] it was 100 to 1000 nM.

`CCOc1ccc2cc(-c3ccc4nn(CC(C)(C)O)cc4c3)c(=O)n(-c3ccc(Cl)cc3)c2n1` [Example 196]: the IC50 was less than 100 nM in assay [1], 100 to 1000 nM in assay [2], less than 100 nM in assay [3] and 100 to 1000 nM in assay [4].

As for `CCOc1ccc2cc(-c3ccc4nccn4c3)c(=O)n(-c3ccc(Cl)cc3)c2n1` [Example 197], the IC50 in assay [1] was less than 100 nM; in assay [2], less than 100 nM; in assay [3], less than 100 nM; in assay [4], not below 1000 nM.

For the compound `CCOc1ccc2cc(-c3ccc(=O)n(C)c3)c(=O)n(-c3ccc(Cl)cc3)c2n1` [Example 199], the IC50 was less than 100 nM in assay [1], 100 to 1000 nM in assay [2], less than 100 nM in assay [3] and not below 1000 nM in assay [4].

Consider `CCOc1ccc2cc(-c3ccc4nnn(C)c4c3)c(=O)n(-c3ccc(Cl)cc3)c2n1` [Example 200], for which the IC50 is less than 100 nM in assay [1], less than 100 nM in assay [2], less than 100 nM in assay [3] and 100 to 1000 nM in assay [4].

For the compound `CCOc1ccc2cc(-c3ccc4nn(C)nc4c3)c(=O)n(-c3ccc(Cl)cc3)c2n1` [Example 201], the IC50 in assay [1] is less than 100 nM; in assay [2] it was less than 100 nM; in assay [3] it was less than 100 nM; in assay [4], not below 1000 nM.

As to `CCOc1ccc2cc(-c3ccnc(OC)c3)c(=O)n(-c3ccc(Cl)cc3)c2n1` [Example 202], the IC50 in assay [1] is less than 100 nM; in assay [2], 100 to 1000 nM; in assay [3] it was 100 to 1000 nM; in assay [4] it was not below 1000 nM.

Consider `CCOc1ccc2cc(-c3ccc4ncsc4c3)c(=O)n(-c3ccc(Cl)cc3)c2n1` [Example 203], for which the IC50 in assay [1] was less than 100 nM; in assay [2], less than 100 nM; in assay [3], less than 100 nM; in assay [4], not below 1000 nM.

For the compound `CCOc1ccc2cc(-c3ccn4nccc4c3)c(=O)n(-c3ccc(Cl)cc3)c2n1` [Example 204], the IC50 in assay [1] is less than 100 nM; in assay [2], less than 100 nM; in assay [3], less than 100 nM; in assay [4] it was not below 1000 nM.

Take `CCOc1ccc2cc(-c3ccc4nncn4c3)c(=O)n(-c3ccc(Cl)cc3)c2n1` [Example 205]: the IC50 in assay [1] was less than 100 nM; in assay [2] it was less than 100 nM; in assay [3] it was less than 100 nM; in assay [4], not below 1000 nM.

As to `CCOc1ccc2cc(-c3ccc4nn(CC(C)(C)O)cc4c3)c(=O)n(-c3ccc(OC(F)F)cc3)c2n1` [Example 207], the IC50 was less than 100 nM in assay [1], 100 to 1000 nM in assay [2], less than 100 nM in assay [3] and 100 to 1000 nM in assay [4].

Take `CCOc1ccc2cc(-c3ccc(=O)n(C)c3)c(=O)n(-c3ccc(OC(F)F)cc3)c2n1` [Example 208]: the IC50 is less than 100 nM in assay [1], less than 100 nM in assay [2], less than 100 nM in assay [3] and 100 to 1000 nM in assay [4].

With `CCOc1ccc2cc(-c3ccc4nnn(C)c4c3)c(=O)n(-c3ccc(OC(F)F)cc3)c2n1` [Example 209], the IC50 in assay [1] was less than 100 nM; in assay [2] it was less than 100 nM; in assay [3], less than 100 nM; in assay [4] it was 100 to 1000 nM.

Turning to `CCOc1ccc2cc(-c3ccc4nccn4c3)c(=O)n(-c3ccc(OC(F)F)cc3)c2n1` [Example 210], the IC50 was less than 100 nM in assay [1], less than 100 nM in assay [2], less than 100 nM in assay [3] and 100 to 1000 nM in assay [4].

`CCOc1ccc2cc(-c3ccc4nn(CC(C)(C)O)cc4c3)c(=O)n(-c3ccc(OC(F)F)nc3)c2n1` [Example 213]: the IC50 is less than 100 nM in assay [1], 100 to 1000 nM in assay [2], 100 to 1000 nM in assay [3] and not below 1000 nM in assay [4].

For the compound `O=c1c(-c2ccc3nncn3c2)cc2ccc(OCC(F)(F)F)nc2n1-c1ccc(Cl)cc1` [Example 214], the IC50 in assay [1] was less than 100 nM; in assay [2], 100 to 1000 nM; in assay [3], less than 100 nM; in assay [4] it was not below 1000 nM.

Take `CCOc1ccc2cc(-c3ccc4nncn4c3)c(=O)n(-c3ccc(OC(F)F)cc3)c2n1` [Example 216]: the IC50 in assay [1] is less than 100 nM; in assay [2], less than 100 nM; in assay [3], less than 100 nM; in assay [4] it was not below 1000 nM.

As for `CCOc1ccc2cc(-c3ccc4nncn4c3)c(=O)n(-c3ccc(OC)cc3)c2n1` [Example 217], the IC50 in assay [1] was less than 100 nM; in assay [2], less than 100 nM; in assay [3], less than 100 nM; in assay [4], not below 1000 nM.

In the case of `O=c1c(-c2ccc3nncn3c2)cc2ccc(OCC(F)F)nc2n1-c1ccc(Cl)cc1` [Example 218], the IC50 in assay [1] was less than 100 nM; in assay [2], less than 100 nM; in assay [3], less than 100 nM; in assay [4], not below 1000 nM.

Consider `CCOc1ccc2cc(-c3ccc4nncn4c3)c(=O)n(-c3ccc(OC(F)(F)F)cc3)c2n1` [Example 219], for which the IC50 in assay [1] is less than 100 nM; in assay [2] it was 100 to 1000 nM; in assay [3], less than 100 nM; in assay [4], not below 1000 nM.

On to `[2H]C([2H])([2H])Oc1ccc(-n2c(=O)c(-c3ccc4nncn4c3)cc3ccc(OCC(F)F)nc32)cc1` [Example 220], for which the IC50 was less than 100 nM in assay [1], less than 100 nM in assay [2], less than 100 nM in assay [3] and not below 1000 nM in assay [4].

For `[2H]C([2H])([2H])Oc1ccc(-n2c(=O)c(-c3ccc4nncn4c3)cc3ccc(OCC)nc32)cc1` [Example 221], the IC50 is less than 100 nM in assay [1], less than 100 nM in assay [2], less than 100 nM in assay [3] and not below 1000 nM in assay [4].

For the compound `CCOc1ccc2nc(-c3ccc4nn(C)cc4c3)c(=O)n(-c3ccc(Cl)cc3)c2n1` [Example 222, 4-(4-chlorophenyl)-6-ethoxy-2-(2-methyl-2H-indazol-5-yl)pyrido[2,3-b]pyrazin-3(4H)-one], the IC50 in assay [1] is less than 100 nM; in assay [2], less than 100 nM; in assay [3] it was less than 100 nM; in assay [4], not below 1000 nM.

`CCOc1ccc2nc(-c3ccc(OC)cc3)c(=O)n(-c3ccc(OC(F)F)cc3)c2n1` [Example 223]: the IC50 in assay [1] is less than 100 nM; in assay [2] it was 100 to 1000 nM; in assay [3], 100 to 1000 nM; in assay [4], not below 1000 nM.

For the compound `CCOc1ccc2nc(-c3ccc4nn(C)cc4c3)c(=O)n(-c3ccc(OC(F)F)cc3)c2n1` [Example 224], the IC50 is less than 100 nM in assay [1], less than 100 nM in assay [2], less than 100 nM in assay [3] and 100 to 1000 nM in assay [4].

(Values after patent US20220251081A1, “HETEROBICYCLIC INHIBITORS OF MAT2A AND METHODS OF USE FOR TREATING CANCER” (priority 2019, published 2022).)
